Source: patent publication EP2322194A2 (Reprise Biopharmaceutics, LLC, priority 2003, dated 2005)
Several values for one entry are separate records, joined by “and”; a condition that tells them apart may be missing. Equal entries are not always repeated. Where two headings read alike, the source gives them in different places.

System: over-hydrated, healthy, non-smoking male and female volunteers
Type: in vivo, human
Conditions: for Urine Output: individual subjects
Description: Briefly, an open-label, crossover study with 8 healthy, over-hydrated, non-smoking male and female volunteers, age 18-40. The subjects were dosed initially with 0.5 ng/kg dose, then with the 1.0 ng/kg dose and finally the 2.0 ng/kg dose. Pharmacodynamic and pharmacokinetic parameters were evaluated at each dose level. A washout period of two days (48 hours) was observed between dosing. Eight subjects evaluated in this study, 5 males, and 3 females. […] Each subject remained in the clinic from one day prior to first dosing to one day after last dosing for a total of 7 days. […] At this point over-hydration was discontinued. […] Urine-specific gravity was also measured. […] This same procedure was followed for the 1.0 ng/kg and 2.0 ng/kg infusions. […] Criteria for evaluation in the study included urine output over time, urine osmolality over time, urine-specific gravity over time, and […] osmolality and sodium over time. Statistical analysis on the above criteria was performed. The statistical analysis is descriptive and all statistical hypothesis testing was done for exploratory purposes. […] The second and third estimation used 200 mOsm/kg and 400 mOsm/kg as cut off levels for 'onset' and 'end' of action, respectively. […] The overall duration of action was estimated for each dose group using the nonparametric Kaplan-Meier method. […] Furthermore, the duration of action was presented for each treatment group using the mean, SD, median, minimum and maximum values. The dose-response relationship between duration of action and dose was investigated using an appropriate linear or nonlinear model.

[1] = 1.0 ng/kg, time -20 min (baseline)
[2] = 2.0 ng/kg, time 0 min (baseline)
[3] = 2.0 ng/kg, time -20 min (baseline)

1-desamino-8-D-arginine vasopressin [desmopressin]
Urine Osmolality, Mean (1.0 ng/kg, time 140 min): 412.2 mOsm/kg | Urine Output, Mean (1.0 ng/kg, time 140 min): 1.8 mL/min | Urine Output (1.0 ng/kg, time 140 min): 0 mL/min | Urine Osmolality, Mean (1.0 ng/kg, time 160 min): 261.7 mOsm/kg | Urine Output, Mean (1.0 ng/kg, time 160 min): 3.2 mL/min | Urine Osmolality, Mean (1.0 ng/kg, time 180 min): 280.9 mOsm/kg | Urine Output, Mean (1.0 ng/kg, time 180 min): 5.0 mL/min | Urine Output (1.0 ng/kg, time 180 min): 7.1 mL/min | Urine Osmolality, Mean (1.0 ng/kg, time 200 min): 216.3 mOsm/kg | Urine Output, Mean (1.0 ng/kg, time 200 min): 6.7 mL/min | Urine Output (1.0 ng/kg, time 200 min): 4.3 mL/min | Urine Osmolality, Mean (1.0 ng/kg, time 220 min): 121.4 mOsm/kg | Urine Output, Mean (1.0 ng/kg, time 220 min): 7.3 mL/min | Urine Osmolality, Mean (1.0 ng/kg, time 240 min): 181.6' mOsm/kg | Urine Output (1.0 ng/kg, time 240 min): 5.5 mL/min | Urine Osmolality, Mean (1.0 ng/kg, time 260 min): 181.8 mOsm/kg | Urine Output, Mean (1.0 ng/kg, time 260 min): 6.6 mL/min | Urine Output (1.0 ng/kg, time 260 min): 4.7 mL/min | Urine Osmolality, Mean (1.0 ng/kg, time 280 min): 242.5 mOsm/kg | Urine Output, Mean (1.0 ng/kg, time 280 min): 4.7 mL/min | Urine Output (1.0 ng/kg, time 280 min): 0 mL/min | Urine Osmolality, Mean (1.0 ng/kg, time 300 min): 202.0 mOsm/kg | Urine Output (1.0 ng/kg, time 300 min): 11.5 mL/min | Urine Osmolality, Mean (1.0 ng/kg, time 320 min): 164.8 mOsm/kg | Urine Output (1.0 ng/kg, time 320 min): 6.7 mL/min | Urine Osmolality, Mean (1.0 ng/kg, time 340 min): 155.5 mOsm/kg | Urine Output, Mean (1.0 ng/kg, time 340 min): 10.6 mL/min | Urine Osmolality, Mean (1.0 ng/kg, time 360 min): 156.3 mOsm/kg | Urine Output, Mean (1.0 ng/kg, time 360 min): 10.4 mL/min | Urine Osmolality, Mean [1]: 55.8 mOsm/kg | Urine Output, Mean [1]: 16.6 mL/min | Urine Output [1]: 10.2 mL/min and 16.8 mL/min | duration of antidiuretic effect (2.0 ng/kg dose): ~360 min | Mean peak urine osmolality (2.0 ng/kg dose, at 2 hours): 587.2 mOsm/kg | Baseline mean urine osmolality (2.0 ng/kg dose, baseline): 55.6 mOsm/kg | Baseline mean urine output (2.0 ng/kg dose, baseline): 16.9 mL/min | Mean nadir urine output (2.0 ng/kg dose, end of 2 hour infusion): 0.7 mL/min | Urine Osmolality, Mean [2]: 56.0 mOsm/kg | Urine Output, Mean [2]: 16.5 mL/min | Urine Osmolality, Mean (2.0 ng/kg, time 20 min): 75.6 mOsm/kg | Urine Output, Mean (2.0 ng/kg, time 20 min): 10.5 mL/min | Urine Osmolality, Mean (2.0 ng/kg, time 40 min): 301.4 mOsm/kg | Urine Output, Mean (2.0 ng/kg, time 40 min): 2.3 mL/min | Urine Osmolality, Mean (2.0 ng/kg, time 60 min): 410.0 mOsm/kg | Urine Output, Mean (2.0 ng/kg, time 60 min): 1.3 mL/min | Urine Osmolality, Mean (2.0 ng/kg, time 80 min): 516.0 mOsm/kg | Urine Output, Mean (2.0 ng/kg, time 80 min): 0.7 mL/min | Urine Osmolality, Mean (2.0 ng/kg, time 100 min): 525.6 mOsm/kg | Urine Output, Mean (2.0 ng/kg, time 100 min): 0.7 mL/min | Urine Osmolality, Mean (2.0 ng/kg, time 120 min): 587.2 mOsm/kg | Urine Output, Mean (2.0 ng/kg, time 120 min): 0.7 mL/min | Urine Osmolality, Mean (2.0 ng/kg, time 140 min): 576.7 mOsm/kg | Urine Output, Mean (2.0 ng/kg, time 140 min): 1.0 mL/min | Urine Osmolality, Mean (2.0 ng/kg, time 160 min): 534.7 mOsm/kg | Urine Output, Mean (2.0 ng/kg, time 160 min): 1.2 mL/min | Urine Osmolality, Mean (2.0 ng/kg, time 180 min): 534.3 mOsm/kg | Urine Output, Mean (2.0 ng/kg, time 180 min): 1.2 mL/min | Urine Osmolality, Mean (2.0 ng/kg, time 200 min): 494.5 mOsm/kg | Urine Output, Mean (2.0 ng/kg, time 200 min): 1.1 mL/min | Urine Osmolality, Mean (2.0 ng/kg, time 220 min): 438.7 mOsm/kg | Urine Output, Mean (2.0 ng/kg, time 220 min): 1.3 mL/min | Urine Osmolality, Mean (2.0 ng/kg, time 240 min): 455.1 mOsm/kg | Urine Output, Mean (2.0 ng/kg, time 240 min): 2.2 mL/min | Urine Osmolality, Mean (2.0 ng/kg, time 260 min): 355.3 mOsm/kg | Urine Output, Mean (2.0 ng/kg, time 260 min): 2.4 mL/min | Urine Osmolality, Mean (2.0 ng/kg, time 280 min): 343.2 mOsm/kg | Urine Output, Mean (2.0 ng/kg, time 280 min): 2.5 mL/min | Urine Osmolality, Mean (2.0 ng/kg, time 300 min): 324.4 mOsm/kg | Urine Output, Mean (2.0 ng/kg, time 300 min): 3.2 mL/min | Urine Osmolality, Mean (2.0 ng/kg, time 320 min): 220.9 mOsm/kg | Urine Output, Mean (2.0 ng/kg, time 320 min): 6.6 mL/min | Urine Osmolality, Mean (2.0 ng/kg, time 340 min): 173.0 mOsm/kg | Urine Osmolality, Mean (2.0 ng/kg, time 360 min): 143.8 mOsm/kg | Urine Output, Mean (2.0 ng/kg, time 360 min): 9.3 mL/min | Urine Osmolality, Mean [3]: 55.6 mOsm/kg | Urine Output, Mean [3]: 16.9 mL/min | antidiuretic effect (low doses as i.v. infusions over 2 hours, dose response fashion): significant antidiuretic effects
